# Reference: PMC10211317, “Identification of ARUK2002821 as an isoform-selective PI5P4Kα inhibitor” (RSC Medicinal Chemistry, 2023)
# Tests used:
# Assay in all cases: Premier Screen kinase panel (MRC PPU)
# Format in all cases: biochemical
# [1] = target: TSSK1 (Homo sapiens, UniProt Q9BXA7); conditions: TSSK1 (Entrez TSSK1B), read-out: Residual activity (%)
# Procedure: (§1) room temperature with shaking for 30 minutes. The kinase concentration in the eluates was measured by qPCR.
# (§2) using ADP-GloTM assay at the MRC PPU International Centre for Kinase Profiling, University of Dundee.
# (§3) Conducted by MRC PPU International Centre
# (§4) Conducted by MRC PPU International Centre for […]
# [2] = target: SIK3 (Homo sapiens, UniProt Q9Y2K2); conditions: SIK3 (Entrez SIK3), read-out: Residual activity (%)
# Procedure: as §1, §2, §3, §4
# [3] = target: ULK2 (Homo sapiens, UniProt Q8IYT8); conditions: ULK2 (Entrez ULK2), read-out: Residual activity (%)
# Procedure: as §1, §2, §3, §4
# [4] = target: PKBa (Homo sapiens, UniProt P31749); conditions: PKBa (Entrez AKT1), read-out: Residual activity (%)
# Procedure: as §1, §2, §3, §4
# [5] = target: OSR1 (Homo sapiens, UniProt O95747); conditions: OSR1 (Entrez OXSR1), read-out: Residual activity (%)
# Procedure: as §1, §2, §3, §4
# [6] = target: MLK1 (Homo sapiens, UniProt P80192); conditions: MLK1 (Entrez MAP3K9), read-out: Residual activity (%)
# Procedure: as §1, §2, §3, §4
# [7] = target: ERK8 (Homo sapiens, UniProt Q8TD08); conditions: ERK8 (Entrez MAPK15), read-out: Residual activity (%)
# Procedure: as §1, §2, §3, §4
# [8] = target: CK1γ2 (Homo sapiens, UniProt P78368); conditions: CK1γ2 (Entrez CSNK1D), read-out: Residual activity (%)
# Procedure: as §1, §2, §3, §4
# [9] = target: TTBK1 (Homo sapiens, UniProt Q5TCY1); conditions: TTBK1 (Entrez TTBK1), read-out: Residual activity (%)
# Procedure: as §1, §2, §3, §4
# [10] = target: LKB1 (Homo sapiens, UniProt Q15831); conditions: LKB1 (Entrez STK11), read-out: Residual activity (%)
# Procedure: as §1, §2, §3, §4
# [11] = target: PINK (Tribolium castaneum, UniProt D6WMX4); conditions: PINK (Entrez PINK1), read-out: Residual activity (%)
# Procedure: as §1, §2, §3, §4
# [12] = target: BTK (Homo sapiens, UniProt Q06187); conditions: BTK (Entrez BTK), read-out: Residual activity (%)
# Procedure: as §1, §2, §3, §4
# [13] = target: TESK1 (Homo sapiens, UniProt Q15569); conditions: TESK1 (Entrez TESK1), read-out: Residual activity (%)
# Procedure: as §1, §2, §3, §4
# [14] = target: TTK (Homo sapiens, UniProt P33981); conditions: TTK (Entrez TTK), read-out: Residual activity (%)
# Procedure: as §1, §2, §3, §4
# [15] = target: IKKe (Homo sapiens, UniProt Q14164); conditions: IKKe (Entrez IKBKE), read-out: Residual activity (%)
# Procedure: as §1, §2, §3, §4
# [16] = target: CDK2-Cyclin A (Homo sapiens, UniProt P24941); conditions: CDK2-Cyclin A (Entrez CDK2 + CCNA2), read-out: Residual activity (%)
# Procedure: as §1, §2, §3, §4
# [17] = target: MKK2 (Homo sapiens, UniProt P36507); conditions: MKK2 (Entrez MAP2K2), read-out: Residual activity (%)
# Procedure: as §1, §2, §3, §4
# [18] = target: EPH-B2 (Homo sapiens, UniProt P29323); conditions: EPH-B2 (Entrez EPHB2), read-out: Residual activity (%)
# Procedure: as §1, §2, §3, §4
# [19] = target: TTBK2 (Homo sapiens, UniProt Q6IQ55); conditions: TTBK2 (Entrez TTBK2), read-out: Residual activity (%)
# Procedure: as §1, §2, §3, §4
# [20] = target: CHK1 (Homo sapiens, UniProt O14757); conditions: CHK1 (Entrez CHEK1), read-out: Residual activity (%)
# Procedure: as §1, §2, §3, §4
# [21] = target: MKK1 (Homo sapiens, UniProt Q02750); conditions: MKK1 (Entrez MAP2K1), read-out: Residual activity (%)
# Procedure: as §1, §2, §3, §4
# [22] = target: ERK1 (Homo sapiens, UniProt P27361); conditions: ERK1 (Entrez MAPK3), read-out: Residual activity (%)
# Procedure: as §1, §2, §3, §4
# [23] = target: PIM3 (Homo sapiens, UniProt Q86V86); conditions: PIM3 (Entrez PIM3), read-out: Residual activity (%)
# Procedure: as §1, §2, §3, §4
# [24] = target: MST3 (Homo sapiens, UniProt Q9Y6E0); conditions: MST3 (Entrez STK24), read-out: Residual activity (%)
# Procedure: as §1, §2, §3, §4
# [25] = target: HIPK1 (Homo sapiens, UniProt Q86Z02); conditions: HIPK1 (Entrez HIPK1), read-out: Residual activity (%)
# Procedure: as §1, §2, §3, §4
# [26] = target: EPH-A4 (Homo sapiens, UniProt P54764); conditions: EPH-A4 (Entrez EPHA4), read-out: Residual activity (%)
# Procedure: as §1, §2, §3, §4
# [27] = target: PAK5 (Homo sapiens, UniProt Q9P286); conditions: PAK5 (Entrez PAK5), read-out: Residual activity (%)
# Procedure: as §1, §2, §3, §4
# [28] = target: DYRK1A (Homo sapiens, UniProt Q13627); conditions: DYRK1A (Entrez DYRK1A), read-out: Residual activity (%)
# Procedure: as §1, §2, §3, §4
# [29] = target: PRK2 (Homo sapiens, UniProt Q16513); conditions: PRK2 (Entrez PKN2), read-out: Residual activity (%)
# Procedure: as §1, §2, §3, §4
# [30] = target: RIPK2 (Homo sapiens, UniProt O43353); conditions: RIPK2 (Entrez RIPK2), read-out: Residual activity (%)
# Procedure: as §1, §2, §3, §4
# [31] = target: Aurora B (Homo sapiens, UniProt Q96GD4); conditions: Aurora B (Entrez AURKB), read-out: Residual activity (%)
# Procedure: as §1, §2, §3, §4
# CK1γ2, sequence (P78368 whole entry): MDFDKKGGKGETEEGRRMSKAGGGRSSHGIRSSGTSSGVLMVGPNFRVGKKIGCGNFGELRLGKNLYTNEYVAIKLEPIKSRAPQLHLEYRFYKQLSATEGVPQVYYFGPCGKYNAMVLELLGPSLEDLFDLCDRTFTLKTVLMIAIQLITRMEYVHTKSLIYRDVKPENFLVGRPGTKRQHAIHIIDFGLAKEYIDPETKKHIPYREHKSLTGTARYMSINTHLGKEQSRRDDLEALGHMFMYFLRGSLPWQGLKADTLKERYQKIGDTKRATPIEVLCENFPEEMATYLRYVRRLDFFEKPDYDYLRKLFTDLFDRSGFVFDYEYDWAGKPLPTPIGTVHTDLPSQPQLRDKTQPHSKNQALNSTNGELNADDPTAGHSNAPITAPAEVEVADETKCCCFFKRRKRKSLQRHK
# LKB1, sequence (Q15831 whole entry): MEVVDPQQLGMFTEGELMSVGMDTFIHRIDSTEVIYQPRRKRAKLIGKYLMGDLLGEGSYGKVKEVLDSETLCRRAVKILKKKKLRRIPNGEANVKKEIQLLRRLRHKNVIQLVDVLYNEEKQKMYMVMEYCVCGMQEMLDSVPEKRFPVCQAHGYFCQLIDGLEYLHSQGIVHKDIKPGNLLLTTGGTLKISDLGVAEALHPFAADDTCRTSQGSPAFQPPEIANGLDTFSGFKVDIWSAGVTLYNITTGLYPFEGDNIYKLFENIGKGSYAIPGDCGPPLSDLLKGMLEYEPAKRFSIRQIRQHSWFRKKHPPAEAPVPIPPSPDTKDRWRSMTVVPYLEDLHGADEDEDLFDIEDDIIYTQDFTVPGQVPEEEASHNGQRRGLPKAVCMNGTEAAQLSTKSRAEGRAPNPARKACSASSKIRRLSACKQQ
# LKB1, sequence (Q7RTN6 whole entry partner): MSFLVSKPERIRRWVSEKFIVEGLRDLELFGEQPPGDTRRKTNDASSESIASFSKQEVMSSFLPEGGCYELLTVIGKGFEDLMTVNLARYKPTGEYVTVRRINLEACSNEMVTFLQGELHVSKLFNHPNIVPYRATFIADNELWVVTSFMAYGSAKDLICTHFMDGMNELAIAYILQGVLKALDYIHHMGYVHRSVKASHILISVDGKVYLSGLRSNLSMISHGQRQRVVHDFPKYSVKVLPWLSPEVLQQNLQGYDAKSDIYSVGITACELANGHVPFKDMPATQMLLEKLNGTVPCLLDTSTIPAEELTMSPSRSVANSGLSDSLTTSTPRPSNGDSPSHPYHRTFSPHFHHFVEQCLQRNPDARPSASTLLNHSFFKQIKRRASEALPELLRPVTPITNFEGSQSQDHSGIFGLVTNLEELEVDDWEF
# LKB1, sequence (Q9Y376 whole entry partner): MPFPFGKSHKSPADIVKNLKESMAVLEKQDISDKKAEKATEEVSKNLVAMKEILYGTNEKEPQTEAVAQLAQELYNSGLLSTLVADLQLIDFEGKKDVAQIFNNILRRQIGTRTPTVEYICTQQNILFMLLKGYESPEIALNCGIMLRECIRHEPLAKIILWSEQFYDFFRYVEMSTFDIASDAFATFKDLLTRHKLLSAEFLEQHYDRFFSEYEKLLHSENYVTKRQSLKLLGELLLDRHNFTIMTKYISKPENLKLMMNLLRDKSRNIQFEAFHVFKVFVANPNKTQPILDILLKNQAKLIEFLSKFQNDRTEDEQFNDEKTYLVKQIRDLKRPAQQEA
# TTK, sequence (P33981 whole entry): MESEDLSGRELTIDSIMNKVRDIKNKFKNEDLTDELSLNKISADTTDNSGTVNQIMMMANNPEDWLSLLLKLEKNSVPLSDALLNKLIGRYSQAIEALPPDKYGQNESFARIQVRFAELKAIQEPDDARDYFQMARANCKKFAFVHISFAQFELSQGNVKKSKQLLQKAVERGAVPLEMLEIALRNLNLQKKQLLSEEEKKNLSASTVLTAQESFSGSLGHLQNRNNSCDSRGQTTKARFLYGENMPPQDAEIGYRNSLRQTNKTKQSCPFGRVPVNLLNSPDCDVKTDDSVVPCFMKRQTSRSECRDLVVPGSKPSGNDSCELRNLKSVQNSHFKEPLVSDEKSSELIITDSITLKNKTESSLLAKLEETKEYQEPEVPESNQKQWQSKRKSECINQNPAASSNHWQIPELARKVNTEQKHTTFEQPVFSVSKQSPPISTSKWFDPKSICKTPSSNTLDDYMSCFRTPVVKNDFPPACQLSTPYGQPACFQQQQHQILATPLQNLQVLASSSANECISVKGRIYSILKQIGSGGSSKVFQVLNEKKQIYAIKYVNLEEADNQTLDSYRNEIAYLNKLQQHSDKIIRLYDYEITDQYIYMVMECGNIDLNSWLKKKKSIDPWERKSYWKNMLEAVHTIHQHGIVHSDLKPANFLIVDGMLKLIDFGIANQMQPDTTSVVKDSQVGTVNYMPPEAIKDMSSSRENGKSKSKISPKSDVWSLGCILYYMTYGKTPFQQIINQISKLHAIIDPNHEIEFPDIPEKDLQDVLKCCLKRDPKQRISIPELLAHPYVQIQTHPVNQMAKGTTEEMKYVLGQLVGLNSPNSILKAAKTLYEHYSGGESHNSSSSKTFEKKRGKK
# TSSK1, sequence (Q9BXA7 whole entry): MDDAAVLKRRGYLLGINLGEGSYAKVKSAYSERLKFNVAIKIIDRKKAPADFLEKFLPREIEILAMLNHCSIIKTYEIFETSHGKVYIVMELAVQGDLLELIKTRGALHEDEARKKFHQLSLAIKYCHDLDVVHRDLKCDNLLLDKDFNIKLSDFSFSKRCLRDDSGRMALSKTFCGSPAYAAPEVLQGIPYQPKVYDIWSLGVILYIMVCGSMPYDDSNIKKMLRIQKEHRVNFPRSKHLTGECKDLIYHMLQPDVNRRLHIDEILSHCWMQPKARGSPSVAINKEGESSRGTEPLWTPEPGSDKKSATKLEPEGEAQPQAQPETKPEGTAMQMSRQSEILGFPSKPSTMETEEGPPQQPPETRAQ
# SIK3, sequence (Q9Y2K2 whole entry): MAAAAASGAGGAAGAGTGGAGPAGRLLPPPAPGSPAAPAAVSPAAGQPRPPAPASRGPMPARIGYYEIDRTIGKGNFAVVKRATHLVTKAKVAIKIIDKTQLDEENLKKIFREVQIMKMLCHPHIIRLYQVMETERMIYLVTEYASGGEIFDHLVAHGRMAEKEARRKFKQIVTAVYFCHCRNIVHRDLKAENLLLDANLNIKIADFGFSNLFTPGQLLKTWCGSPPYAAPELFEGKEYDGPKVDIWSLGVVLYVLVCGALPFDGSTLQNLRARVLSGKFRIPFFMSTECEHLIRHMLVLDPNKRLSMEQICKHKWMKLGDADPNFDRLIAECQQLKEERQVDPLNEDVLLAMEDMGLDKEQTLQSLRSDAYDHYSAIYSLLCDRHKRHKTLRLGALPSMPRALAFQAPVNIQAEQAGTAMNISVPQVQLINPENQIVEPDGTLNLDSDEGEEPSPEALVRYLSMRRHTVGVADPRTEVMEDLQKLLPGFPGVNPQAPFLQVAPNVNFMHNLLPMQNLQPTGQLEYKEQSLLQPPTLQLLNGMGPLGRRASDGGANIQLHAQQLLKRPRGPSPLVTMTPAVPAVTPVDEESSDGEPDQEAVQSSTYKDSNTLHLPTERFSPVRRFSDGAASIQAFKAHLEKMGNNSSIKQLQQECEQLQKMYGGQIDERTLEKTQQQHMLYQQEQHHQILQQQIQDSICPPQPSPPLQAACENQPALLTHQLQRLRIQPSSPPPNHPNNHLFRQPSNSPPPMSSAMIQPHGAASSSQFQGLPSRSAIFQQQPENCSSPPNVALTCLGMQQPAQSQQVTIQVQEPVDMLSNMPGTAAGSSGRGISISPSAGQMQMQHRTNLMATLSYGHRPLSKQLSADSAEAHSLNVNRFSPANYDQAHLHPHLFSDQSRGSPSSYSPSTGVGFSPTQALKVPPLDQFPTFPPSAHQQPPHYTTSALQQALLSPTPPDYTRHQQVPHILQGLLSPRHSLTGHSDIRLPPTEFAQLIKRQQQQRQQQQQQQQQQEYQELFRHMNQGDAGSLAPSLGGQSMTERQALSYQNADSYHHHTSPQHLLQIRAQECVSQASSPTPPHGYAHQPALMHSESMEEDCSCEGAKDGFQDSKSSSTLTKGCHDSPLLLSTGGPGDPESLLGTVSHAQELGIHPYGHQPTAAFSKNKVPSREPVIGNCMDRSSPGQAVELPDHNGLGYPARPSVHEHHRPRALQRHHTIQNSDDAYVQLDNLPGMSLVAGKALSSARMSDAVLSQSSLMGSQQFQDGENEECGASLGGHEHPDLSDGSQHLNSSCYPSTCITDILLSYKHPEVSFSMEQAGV
# PKBa, sequence (P31749 whole entry): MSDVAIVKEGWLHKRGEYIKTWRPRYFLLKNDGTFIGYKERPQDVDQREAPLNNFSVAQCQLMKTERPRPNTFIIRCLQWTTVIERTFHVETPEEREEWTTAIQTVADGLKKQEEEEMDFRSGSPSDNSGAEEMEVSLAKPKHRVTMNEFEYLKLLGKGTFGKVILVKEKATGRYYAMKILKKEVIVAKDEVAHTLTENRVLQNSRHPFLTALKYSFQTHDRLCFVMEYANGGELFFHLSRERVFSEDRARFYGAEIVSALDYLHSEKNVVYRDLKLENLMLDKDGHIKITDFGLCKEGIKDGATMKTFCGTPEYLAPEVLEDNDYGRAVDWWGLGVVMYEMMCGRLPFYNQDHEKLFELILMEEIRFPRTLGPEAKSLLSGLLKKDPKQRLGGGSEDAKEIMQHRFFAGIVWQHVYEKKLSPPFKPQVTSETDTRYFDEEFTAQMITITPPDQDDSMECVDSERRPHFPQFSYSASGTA
# ERK1, sequence (P27361 whole entry, species assumed): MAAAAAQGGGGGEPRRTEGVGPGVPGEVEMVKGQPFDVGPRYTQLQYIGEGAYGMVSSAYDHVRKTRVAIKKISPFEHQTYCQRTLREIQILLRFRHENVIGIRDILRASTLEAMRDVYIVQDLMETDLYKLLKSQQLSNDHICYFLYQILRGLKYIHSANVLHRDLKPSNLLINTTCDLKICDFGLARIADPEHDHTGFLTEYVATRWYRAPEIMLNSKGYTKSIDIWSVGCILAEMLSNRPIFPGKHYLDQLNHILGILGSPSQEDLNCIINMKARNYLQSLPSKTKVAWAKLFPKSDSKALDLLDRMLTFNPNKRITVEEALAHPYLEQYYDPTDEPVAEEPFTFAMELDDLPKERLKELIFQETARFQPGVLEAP
smiles,measurement,setting,value
COc1ccc(Nc2ncnc3c2ccn3-c2ccc(C)c(C)c2)cc1Cl [compound 36],remaining activity at 1 µM,[1],98%
same,remaining activity at 1 µM,[2],123%
same,remaining activity at 1 µM,[3],92%
same,remaining activity at 1 µM,[4],90%
same,remaining activity at 1 µM,[5],87%
same,remaining activity at 1 µM,[6],70%
same,remaining activity at 1 µM,[7],110%
same,remaining activity at 1 µM,[8],92%
same,remaining activity at 1 µM,[9],68%
same,remaining activity at 1 µM,[10],101%
same,remaining activity at 1 µM,[11],73%
same,remaining activity at 1 µM,[12],99%
same,remaining activity at 1 µM,[13],88%
same,remaining activity at 1 µM,[14],87%
same,remaining activity at 1 µM,[15],89%
same,remaining activity at 1 µM,[16],100%
same,remaining activity at 1 µM,[17],82%
same,remaining activity at 1 µM,[18],97%
same,remaining activity at 1 µM,[19],70%
same,remaining activity at 1 µM,[20],82%
same,remaining activity at 1 µM,[21],112%
same,remaining activity at 1 µM,[22],62%
same,remaining activity at 1 µM,[23],87%
same,remaining activity at 1 µM,[24],124%
same,remaining activity at 1 µM,[25],104%
same,remaining activity at 1 µM,[26],101%
same,remaining activity at 1 µM,[27],94%
same,remaining activity at 1 µM,[28],89%
same,remaining activity at 1 µM,[29],86%
same,remaining activity at 1 µM,[30],92%
same,remaining activity at 1 µM,[31],110%
